Measured values reported in US8575321B2, “Benzylbenzene derivatives and methods of use” (Theracos, Inc., priority 2007, dated 2013).

Legend:
human SGLT1 = target: T1, human SGLT1 (Homo sapiens, UniProt P13866); test: Methyl-α-D-[U-14C]glucopyranoside uptake assay in COS-7 cells expressing human SGLT1; assay type: cell-based; settings: 2 h incubation
T1 construct: Full-length human SGLT1 cDNA on pDream2.1 expression vector; host or cells: COS-7 cells (American Type Culture Collection)
T1 sequence (P13866 1-664): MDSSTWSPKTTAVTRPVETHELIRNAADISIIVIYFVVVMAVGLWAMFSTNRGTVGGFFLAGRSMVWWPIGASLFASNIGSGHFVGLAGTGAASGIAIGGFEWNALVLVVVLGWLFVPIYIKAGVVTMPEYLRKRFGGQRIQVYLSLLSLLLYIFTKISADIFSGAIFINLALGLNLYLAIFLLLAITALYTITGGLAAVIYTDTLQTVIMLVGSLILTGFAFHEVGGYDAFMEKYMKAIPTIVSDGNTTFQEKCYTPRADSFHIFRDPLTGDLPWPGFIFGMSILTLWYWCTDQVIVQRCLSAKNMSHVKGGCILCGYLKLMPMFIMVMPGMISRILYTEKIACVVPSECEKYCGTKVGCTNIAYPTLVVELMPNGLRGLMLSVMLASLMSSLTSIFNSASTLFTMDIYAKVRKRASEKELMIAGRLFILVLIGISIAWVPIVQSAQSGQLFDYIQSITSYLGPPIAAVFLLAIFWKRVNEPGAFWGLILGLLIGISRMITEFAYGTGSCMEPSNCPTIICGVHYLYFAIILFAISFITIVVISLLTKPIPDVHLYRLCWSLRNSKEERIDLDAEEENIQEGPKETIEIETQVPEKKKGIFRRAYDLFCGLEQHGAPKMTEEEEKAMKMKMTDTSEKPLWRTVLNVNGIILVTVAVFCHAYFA
Method: Full-length human SGLT1 cDNA on pDream2.1 expression vector was obtained from GenScript Corporation and propagated in Escherichia coli strain DH5α using Luria-Bertani (LB) medium containing ampicillin. Plasmid DNA was isolated using the QIAGEN Plasmid Midi Kit (QIAGEN Inc.). […] Transfected cells were stored in DMEM containing 10% dimethyl sulfoxide (DMSO) at −80° C.
(§1) Cells expressing SGLT1 or SGLT2 were seeded on 96-well ScintiPlate scintillating plates (PerkinElmer, Inc.) in DMEM containing 10% FBS (1×10^5 cells per well in 100 μl medium) incubated at 37° C. under 5% CO2 for 48 h prior to the assay. Cells were washed twice with 150 μl of either sodium buffer (137 mM NaCl, 5.4 mM KCl, 2.8 mM CaCl2, 1.2 mM MgCl2, 10 mM tris(hydroxymethyl)aminomethane/N^2-hydroxyethylpiperazine-N′-ethanesulfonic acid [Tris/Hepes], pH 7.2) or sodium-free buffer (137 mM N-methyl-glucamine, 5.4 mM KCl, 2.8 mM CaCl2, 1.2 mM MgCl2, 10 mM Tris/Hepes, pH 7.2). Test compound in 50 μl each of sodium or sodium-free buffer containing 40 μCi/ml methyl-α-D-[U-^14C]glucopyranoside (Amersham Biosciences/GE Healthcare), either with (symbols in parentheses) or without (symbols without parentheses) 25% human serum, was added per well of a 96-well plate and incubated at 37° C. with shaking for either 2 h (SGLT1 assay) or 1.5 h (SGLT2 assay). Cells were washed twice with 150 μl of wash buffer (137 mM N-methylglucamine, 10 mM Tris/Hepes, pH 7.2) and methyl-α-D-[U-^14C]glucopyranoside uptake was quantitated using a TopCount scintillation counter (PerkinElmer, Inc.). Sodium-dependent glucopyranoside uptake was measured by subtracting the values obtained with sodium-free buffer from those obtained using sodium buffer (average of triplicate determinations).

human SGLT2 = target: T2, human SGLT2 (Homo sapiens, UniProt P31639); test: Methyl-α-D-[U-14C]glucopyranoside uptake assay in HEK293.ETN cells stably expressing human SGLT2; assay type: cell-based; settings: 1.5 h incubation
T2 construct: A full-length cDNA clone expressing human SGLT2
T2 sequence (P31639 1-672): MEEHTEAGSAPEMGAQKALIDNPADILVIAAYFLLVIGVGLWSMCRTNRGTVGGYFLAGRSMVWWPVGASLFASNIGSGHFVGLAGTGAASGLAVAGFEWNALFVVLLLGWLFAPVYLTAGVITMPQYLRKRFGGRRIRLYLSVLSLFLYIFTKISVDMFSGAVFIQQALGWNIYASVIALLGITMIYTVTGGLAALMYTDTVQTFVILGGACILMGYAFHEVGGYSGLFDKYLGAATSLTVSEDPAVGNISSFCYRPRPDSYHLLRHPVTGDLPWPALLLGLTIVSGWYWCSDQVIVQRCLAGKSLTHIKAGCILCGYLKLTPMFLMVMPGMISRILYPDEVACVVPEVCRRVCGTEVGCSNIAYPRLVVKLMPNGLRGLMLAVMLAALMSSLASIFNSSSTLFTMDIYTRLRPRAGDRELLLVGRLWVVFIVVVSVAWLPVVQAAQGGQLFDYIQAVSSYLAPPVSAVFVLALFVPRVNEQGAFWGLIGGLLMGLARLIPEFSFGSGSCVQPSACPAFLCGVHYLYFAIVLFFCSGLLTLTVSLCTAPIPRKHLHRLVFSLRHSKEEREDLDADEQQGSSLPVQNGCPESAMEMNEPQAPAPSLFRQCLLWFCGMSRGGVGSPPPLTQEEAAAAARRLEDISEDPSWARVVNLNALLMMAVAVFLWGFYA
Excerpt: A full-length cDNA clone expressing human SGLT2 (GenScript Corporation) was subcloned into Hind III and Not I sites of pEAK15 expression vector. Clones harboring the cDNA inserts were identified by restriction analysis.
Plasmid containing human SGLT2 was linearized with Nsi I and purified by agarose gel electrophoresis. Using Lipofectamine 2000 Transfection Reagent (Invitrogen Corporation), DNA was transfected into HEK293.ETN cells and cultured in Dulbecco's Modified Eagle Medium (DMEM) containing 10% fetal bovine serum (FBS) at 37° C. under 5% CO2 for 24 h. Transfectants were selected in the same growth medium supplemented with puromycin (Invitrogen Corporation) for two weeks. Puromycin-resistant cells were recovered and seeded on a fresh 96-well plate (single cell per well) and cultured in the presence of puromycin until cells became confluent. Puromycin-resistant clones were evaluated for SGLT2 activity in the methyl-α-D-[U-^14C]glucopyranoside uptake assay described below.
as §1

[1] = incubation with 25% human serum (symbols in parentheses)
[2] = without human serum (symbols without parentheses)

SMILES	IC50 (human SGLT1; [1]) [µM]	IC50 (human SGLT2; [1]) [µM]	IC50 (human SGLT1; [2]) [µM]	IC50 (human SGLT2; [2]) [µM]
OC[C@H]1O[C@@H](c2ccc(Cl)c(Cc3ccc(CCCOC4CC4)cc3)c2)[C@H](O)[C@@H](O)[C@@H]1O [Compound DJ, (2S,3R,4R,5S,6R)-2-(4-chloro-3-(4-(3-cyclopropoxypropyl)benzyl)phenyl)-6-(hydroxymethyl)tetrahydro-2H-pyran-3,4,5-triol]	1 to 10	< 1	–	–
COCCOCCOc1ccc(Cc2cc([C@@H]3O[C@H](CO)[C@@H](O)[C@H](O)[C@H]3O)ccc2Cl)cc1 [Compound M, (2S,3R,4R,5S,6R)-2-(4-chloro-3-(4-(2-(2-methoxyethoxy)ethoxy)benzyl)phenyl)-6-(hydroxymethyl)tetrahydro-2H-pyran-3,4,5-triol]	–	–	1 to 10	< 1
C=CCOCCOc1ccc(Cc2cc([C@@H]3O[C@H](CO)[C@@H](O)[C@H](O)[C@H]3O)ccc2Cl)cc1 [Compound P, (2S,3R,4R,5S,6R)-2-(3-(4-(2-(allyloxy)ethoxy)benzyl)-4-chlorophenyl)-6-(hydroxymethyl)tetrahydro-2H-pyran-3,4,5-triol]	1 to 10	< 1	–	–
C#CCOCCOc1ccc(Cc2cc([C@@H]3O[C@H](CO)[C@@H](O)[C@H](O)[C@H]3O)ccc2Cl)cc1 [Compound R, (2S,3R,4R,5S,6R)-2-(4-chloro-3-(4-(2-(prop-2-ynyloxy)ethoxy)benzyl)phenyl)-6-(hydroxymethyl)tetrahydro-2H-pyran-3,4,5-triol]	1 to 10	< 1	–	–
C#CCOCC(C)Oc1ccc(Cc2cc([C@@H]3O[C@H](CO)[C@@H](O)[C@H](O)[C@H]3O)ccc2Cl)cc1 (stereo partly drawn) [Compound T, (2S,3R,4R,5S,6R)-2-(4-chloro-3-(4-(1-(prop-2-ynyloxy)propan-2-yloxy)benzyl)phenyl)-6-(hydroxymethyl)tetrahydro-2H-pyran-3,4,5-triol]	> 10	< 1	–	–
OCC#CCOc1ccc(Cc2cc([C@@H]3O[C@H](CO)[C@@H](O)[C@H](O)[C@H]3O)ccc2Cl)cc1 [Compound X, (2S,3R,4R,5S,6R)-2-(4-chloro-3-(4-(4-hydroxybut-2-ynyloxy)benzyl)phenyl)-6-(hydroxymethyl)tetrahydro-2H-pyran-3,4,5-triol]	1 to 10	< 1	–	–
COCC#CCOc1ccc(Cc2cc([C@@H]3O[C@H](CO)[C@@H](O)[C@H](O)[C@H]3O)ccc2Cl)cc1 [Compound Z, (2S,3R,4R,5S,6R)-2-(4-chloro-3-(4-(4-methoxybut-2-ynyloxy)benzyl)phenyl)-6-(hydroxymethyl)tetrahydro-2H-pyran-3,4,5-triol]	> 10	< 1	–	–
